# Measurements reported in patent US11453904B2, “Evaluation method for permeability of porous membrane, cell evaluation method, and drug evaluation method” (FUJIFILM CORPORATION, priority 2019, dated 2022).
# Tested on: endothelial cells 301 and the smooth muscle cells 302
# Assay: drug evaluation method: toxicity of a drug to cells cultured on the porous membrane of a microfluidic device, read by flow rate in the lower micro flow channel
# Format: cell-based
# Details: cytochalasin 50 μg/ml contained in liquid A and liquid B; concluded from the increased flow-rate slope (decreased barrier property)
# From the text: The drug evaluation method according to the present embodiment includes culturing cells on the surface of the porous membrane 30 of the microfluidic device 110 (a step S41). […] This makes it possible to form a structure that simulates the blood vessel (the artery) in the microfluidic device 110. It is noted that the cells to be evaluated may be cultured only on one surface of the porous membrane 30.
# The drug evaluation method according to the present embodiment includes exposing cells cultured on the surface of the porous membrane 30 to a drug to be evaluated (a step S42). That is, a liquid containing a drug to be evaluated is supplied to each of the upper micro flow channel 18 and the lower micro flow channel 24.
# The drug evaluation method according to the present embodiment includes acquiring the evaluation indicator of the permeability of the porous membrane 30 according to any one of the first to third embodiments described above as an indicator of toxicity of the drug to be evaluated to the cells. That is, the change that occurs in the liquid accommodated in the lower micro flow channel 24 is acquired as an indicator of toxicity of the drug to be evaluated to the cells, in a case where the liquid is supplied to the upper micro flow channel 18 while the supply pressure is being changed (a step S43). […]
substance,measurement,value
cytochalasin,toxicity to the endothelial cells 301 and the smooth muscle cells 302,has toxicity
